According to PMC3087488 (Journal of Oncology, 2011):

What was measured:
[1] = system: VEGFR3; design: method as in PMID 16951187; conditions: cited from earlier work
[2] = system: Kit; design: method as in PMID 16951187; conditions: cited from earlier work
[3] = system: advanced solid tumors; assay: tumor response per modified RECIST; conditions: for Confirmed complete response / Confirmed objective response, % (95% CI) / Confirmed partial response / Durable stable disease (≥24 weeks) / Progressive disease / Stable disease / Unevaluable / Clinical benefit rate (CR + PR + durable SD): gemcitabine/cisplatin
[4] = phase 1b dose escalation: dose-limiting toxicities and MTD; conditions: in combination with panitumumab and gemcitabine/cisplatin; patients with advanced solid tumors
[5] = motesanib 50 mg QD (n = 8) + panitumumab
[6] = motesanib 75 mg BID (n = 2) + panitumumab
[7] = motesanib 75 mg QD (n = 6) + panitumumab
[8] = motesanib 100 mg QD (n = 6) + panitumumab
[9] = motesanib 125 mg QD (n = 11) + panitumumab

Procedure: Magnetic resonance imaging or computed tomographic scans were performed at baseline and every 6 to 9 weeks throughout the study. Any finding of complete or partial response was confirmed between 4 and 6 weeks after the initial determination of complete or partial response. Target lesions were evaluated by the investigator using modified RECIST [20].
The pharmacokinetic analysis set included patients with evaluable pharmacokinetic samples.

## CC1(C)CNc2cc(NC(=O)c3cccnc3NCc3ccncc3)ccc21 [motesanib]
[1]
  IC50: […]
[2]
  IC50: […]
[3]; all 41 patients
  patients with durable (≥24 weeks) stable disease: six
[3]; all 41 patients incl. 0-mg cohort
  patients with confirmed partial response: […]
[3]; all 41 patients incl. 0-mg cohort, 10 patients, 95% CI, 12.4–40.3
  confirmed objective response: 24%
[3]; all 41 patients, twenty patients
  patients with best response of stable disease: 49%
[3]; all patients
  median progression-free survival: […]
[3]; all patients, 95% CI: 2.8—not estimable
  Kaplan-Meier estimate of median progression-free survival: […]
[3]; all patients, breast cancer
  patients with complete response as best objective response: One
[3]; [5]
  Confirmed complete response: 0 (0) n (%)
  Confirmed objective response, % (95% CI): 0 (0–36.9) %
  Confirmed partial response: 0 (0) n (%)
  Durable stable disease (≥24 weeks): 0 (0) n (%)
  Unevaluable: 0 (0) n (%)
[3]; [6]
  Confirmed complete response: 0 (0) n (%)
  Durable stable disease (≥24 weeks): 0 (0) n (%)
  Progressive disease: 0 (0) n (%)
  Unevaluable: 0 (0) n (%)
[3]; [7]
  Confirmed complete response: 0 (0) n (%)
  Progressive disease: 0 (0) n (%)
[3]; [8]
  Progressive disease: 0 (0) n (%)
  Unevaluable: 0 (0) n (%)
[3]; [9]
  Confirmed complete response: 0 (0) n (%)
[3]; of the 41 patients enrolled
  patients with complete response, partial response, or stable disease as best response: […]
[4]
  maximum tolerated dose (MTD) of motesanib: […]
